Like-named read-outs stand apart in the source and are kept apart here.
Key:
Format in all cases: cell-based
[1] = molecular target: T1, PepT1 (Homo sapiens, UniProt P46059); experiment: Inhibition of [14C] glycylsarcosine uptake into Caco-2 cells
T1 construct: In Caco-2 cells, only PepT1 was expressed; endogenous in cells; host or cells: Caco-2 (human colon cancer cell line)
T1 sequence (P46059 1-708): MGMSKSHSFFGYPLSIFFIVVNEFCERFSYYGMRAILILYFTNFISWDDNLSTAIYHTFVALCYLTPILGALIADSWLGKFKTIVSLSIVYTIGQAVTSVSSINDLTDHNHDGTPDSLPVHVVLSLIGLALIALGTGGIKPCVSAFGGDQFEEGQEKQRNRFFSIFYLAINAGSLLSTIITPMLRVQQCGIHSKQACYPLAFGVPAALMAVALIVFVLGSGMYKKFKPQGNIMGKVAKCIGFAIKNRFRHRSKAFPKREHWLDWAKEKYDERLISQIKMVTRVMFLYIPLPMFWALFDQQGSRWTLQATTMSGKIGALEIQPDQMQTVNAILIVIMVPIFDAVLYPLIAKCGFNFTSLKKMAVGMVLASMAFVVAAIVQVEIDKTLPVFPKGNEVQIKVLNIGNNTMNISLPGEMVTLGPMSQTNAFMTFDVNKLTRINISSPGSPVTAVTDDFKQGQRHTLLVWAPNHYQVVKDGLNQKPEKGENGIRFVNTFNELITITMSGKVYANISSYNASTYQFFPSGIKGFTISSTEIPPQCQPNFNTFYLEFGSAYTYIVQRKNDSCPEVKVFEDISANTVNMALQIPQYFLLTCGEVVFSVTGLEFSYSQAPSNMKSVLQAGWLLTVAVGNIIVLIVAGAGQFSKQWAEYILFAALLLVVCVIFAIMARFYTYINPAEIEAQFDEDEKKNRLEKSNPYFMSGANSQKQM
Method: AT-264's ability to inhibit PepT was examined using a human colon cancer cell line (Caco-2 cells). The results were that the IC50 for uptake of radioactive substrate [^14C] glycylsarcosine into cells was 100 μM (FIG. 1). In Caco-2 cells, only PepT1 was expressed, and PepT1 function was considered to be inhibited by AT-264. The purity of AT-264 used in the present experiment was approximately 50% to 60%, and the actual IC50 was thought to be about 50 μM or so.

[2] = molecular target: T2, human PepT2 (Homo sapiens, UniProt Q16348); experiment: Inhibition of [3H] glycylsarcosine uptake into BaF3/PepT2 cells
T2 construct: expressed in transfected cells; host or cells: BaF3 (murine bone marrow-derived cell line)
T2 sequence (Q16348 1-729): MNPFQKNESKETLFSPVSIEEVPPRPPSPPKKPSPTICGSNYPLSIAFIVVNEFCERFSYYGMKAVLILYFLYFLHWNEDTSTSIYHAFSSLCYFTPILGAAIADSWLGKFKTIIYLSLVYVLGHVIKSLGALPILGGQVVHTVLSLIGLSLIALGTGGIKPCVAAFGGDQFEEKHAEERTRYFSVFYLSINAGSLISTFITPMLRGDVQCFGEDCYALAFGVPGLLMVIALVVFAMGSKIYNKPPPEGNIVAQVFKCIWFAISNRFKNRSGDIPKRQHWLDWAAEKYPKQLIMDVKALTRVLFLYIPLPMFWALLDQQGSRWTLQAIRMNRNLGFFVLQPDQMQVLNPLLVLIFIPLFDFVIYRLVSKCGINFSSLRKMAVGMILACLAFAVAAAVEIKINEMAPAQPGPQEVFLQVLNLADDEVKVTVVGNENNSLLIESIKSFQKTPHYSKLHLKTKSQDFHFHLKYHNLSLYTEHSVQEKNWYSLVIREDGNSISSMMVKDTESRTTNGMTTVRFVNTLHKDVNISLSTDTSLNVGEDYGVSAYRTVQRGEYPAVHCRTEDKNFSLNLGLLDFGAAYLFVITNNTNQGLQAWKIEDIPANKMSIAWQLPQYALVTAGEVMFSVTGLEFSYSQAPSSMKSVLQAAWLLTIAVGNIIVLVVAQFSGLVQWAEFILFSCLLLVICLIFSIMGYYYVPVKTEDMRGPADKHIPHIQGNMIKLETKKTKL
From the text: The ability of AT-264 to inhibit PepT2 was examined using a murine bone marrow-derived cell line BaF3 in which human PepT2 is forced to be expressed (hereinafter, abbreviated to BaF3/PepT2).

[3] = tested on: human pancreatic cancer cell line AsPC-1; experiment: Cell growth inhibition of AsPC-1, MTS assay
Method: (§1) AT-264 was dissolved in RPMI1640—10 mM Hepes (hereinafter, abbreviated to ‘the medium’) containing 0.5% ethanol and 0.5% DMSO to prepare 2.5 mM AT-264 solution. Then, this solution was diluted with the medium to prepare 0.625 mM and 0.0625 mM AT-264 solutions.
A 5×10^4 cells/mL solution of human pancreatic cancer cell line AsPC-1 was prepared using a medium containing 50% FBS. This suspension was plated onto a 96-well plate pre-coated with Collagen type I at 40 μL/well (2×10^3 cells), and 160 μL of the AT-264 solution was added. This was cultured for six days in a CO2 incubator (on the second day of culturing, 100 units/mL penicillin and 0.1 mg/mL streptomycin were added). On the sixth day of culturing, the number of viable cells was quantified by MTS assay.

[4] = tested on: human pancreatic cancer cell line BxPC-3; experiment: Cell growth inhibition of BxPC-3, MTS assay
Method: as §1, with “Hepes with 100 units/mL penicillin and 0.1 mg/mL streptomycin” for “Hepes”, “Furthermore,” for “Then,”
5×10^4 cells/mL solution of BxPC-3 was prepared using the medium containing 50% FBS. This suspension was plated onto a 96-well plate pre-coated with Collagen type I at 40 μL/well (2×10^3 cells), and 160 μL of AT-264 solution was added. This was cultured for six days in a CO2 incubator, and on the sixth day of culturing, the number of viable cells was quantified by MTS assay.

N=C(N)c1cccc(CC(NS(=O)(=O)NCc2cccc3ccccc23)C(=O)N2CCCCC2C(=O)O)c1 (stereo not drawn) [AT-264]
IC50 ([1]; AT-264 purity approximately 50% to 60%, read-out: IC50 for uptake of radioactive substrate [14C] glycylsarcosine into cells): 100 µM
IC50 ([1]; estimated from purity of approximately 50% to 60%, read-out: actual IC50 (corrected for purity of AT-264)): ~50 µM
uptake of radioactive substrate [3H] glycylsarcosine into cells [2]: inhibited in a concentration-dependent manner
Cell growth inhibition ([3]; AsPC-1, 0.5 mM AT-264, six days culture): slight
inhibition at 2000 µM ([3]; Homo sapiens, ASPC1, 144 h, AsPC-1, 2 mM AT-264, six days culture): ~30%
Morphological changes to AsPC-1 under the microscope ([3]; in the presence of AT-264): not observed
inhibition at 500 µM ([4]; Homo sapiens, 144 h, BxPC-3, 0.5 mM AT-264, six days culture): ~20%
inhibition at 2000 µM ([4]; Homo sapiens, 144 h, BxPC-3, 2 mM AT-264, six days culture): ~75%
Morphological changes to BxPC-3 under the microscope ([4]; in the presence of AT-264): not observed

From patent US20050004227A1, “Cell growth inhibitor” (priority 2001, published 2005)
